# Measured values: patent US9682969B2, “Phthalazinone compounds and methods for the treatment of cystic fibrosis” (FLATLEY DISCOVERY LAB, LLC, priority 2013, dated 2017)
# Target: human F508del CFTR (Homo sapiens (Human), UniProt P13569, DEL508-508)
# Experiment: CFTR-YFP High Throughput Assay (YFP flux assay, FRT cells)
# Type: cell-based
# Conditions: FRT cells expressing human F508del CFTR and YFP
# Protocol: This protocol is designed to selectively screen small molecule compounds for F508del CFTR corrector activities in the YFP (yellow fluorescent protein) flux assay. In this protocol, the cells are incubated with testing compounds for 24 hours, washed with PBS, stimulated with forskolin and a standard potentiator, and fluorescence in each plate well is measured kinetically read on a 384-well plate reader, such as the Hamamatsu FDSS-6000.
# YFP fluorescence intensity values are acquired at high speed before and after iodide buffer is injected to the assay cells. Iodide enters the cells via active CFTR channels in the plasma membrane, and quenches the YFP fluorescence. The rate of fluorescence quenching is proportionate to the total CFTR activity in the cell membrane. F508del CFTR correctors increase the number of CFTR molecules in the testing cell plasma membrane, and thereby accelerate YFP quenching.
# This method was initially developed for bench top plate readers (Galietta, J, Jayaraman, S and Verkman, A S. Cell-based assay for high-throughput quantitative screening of CFTR chloride transport agonists. Am. J. Physiol. Cell Physiol. (2001), 281: C173), and was adapted to the HTS format (Sui J, Cotard S, Andersen J, Zhu P, Staunton J, Lee M, Lin S. Optimization of a Yellow fluorescent protein-based iodide influx high-throughput screening assay for cystic fibrosis transmembrane conductance regulator (CFTR) modulators. Assay Drug Dev Technol. (2010), 8: 656-668).
# Fisher Rat Thyroid (FRT) cells stably expressing both human F508del CFTR and a halide-sensitive yellow fluorescent protein (YFP-H148Q/I152L 25,22) (Galietta et al. Am. J. Physiol Cell Physiol 281(5), C1734, 2001) were cultured on plastic surface in Coon's modified Ham's F12 medium supplemented with FBS 10%, L-glutamine 2 mM, penicillin 100 U/ml, and streptomycin […]. G418 (0.75-1.0 mg/ml) and zeocin (3.2 ug/ml) were used for selection of FRT cells expressing F508del CFTR and YFP. For primary screening, FRT cells were plated into 384-well black wall, transparent bottom microtiter plates (Costar; Corning Inc.) at a cell density of 20,000-40,000 per well. Test compound was applied to the cells at varying concentrations ranging from 2 nM-40 μM in either a 2-fold or 3-fold dilution series. Cells were incubated in a cell culture incubator at 37° C. with 5% CO2 for 24-26 h. Assay plates were washed with DPBS media (Thermo, cat# SH30028.02) to remove unbound cells and compound. Stimulation media (25 μL) containing 20 μM Forskolin & 30 μM P3 [6-(Ethyl-phenyl-sulfonyl)-4-oxo-1,4-dihydro-quinoline-3-carboxylic acid 2-methoxy-benzylamide] in Hams F-12 coon's modified media was added to the plate wells and incubated at room temperature for 60-120 min. 25 μL of HEPES-PBS-I buffer (10 mM HEPES, 1 mM MgCl2, 3 mM KCl, 1 mM CaCl2, 150 mM NaI) was then added and fluorescence quench curves (Excitation 500 nm/Emission 540 nm; exposure 136 ms) were immediately recorded on an FDSS-6000 plate reader (Hamamatsu). Quench rates were derived from least squares fitting of the data as described by Sui et al (2010).
# This protocol is designed to selectively screen small molecule compounds for F508del CFTR potentiator activities in the YFP (yellow fluorescent protein) flux assay. Such compounds act acutely to stimulate CFTR already expressed on the membrane surface. In this protocol, the cells are incubated at 27° C. for 24 hours to homogeneously boost F508del CFTR expression in the cell membrane (low temperature correction), washed with PBS, treated with test compound, and CFTR activity is stimulated with forskolin for 1-2 hr. Measurement of ion flux is initiated by addition of iodide-containing buffer, and YFP quenching is kinetically recorded using a 384-well plate reader, such as the Hamamatsu FDSS-6000.
# YFP fluorescence intensity values are acquired at high speed over a 1 min time course before and after iodide buffer is injected to the assay cells. […]
# human F508del CFTR, sequence (P13569 other isoform, or with tags, fused parts or gaps del F508-F508): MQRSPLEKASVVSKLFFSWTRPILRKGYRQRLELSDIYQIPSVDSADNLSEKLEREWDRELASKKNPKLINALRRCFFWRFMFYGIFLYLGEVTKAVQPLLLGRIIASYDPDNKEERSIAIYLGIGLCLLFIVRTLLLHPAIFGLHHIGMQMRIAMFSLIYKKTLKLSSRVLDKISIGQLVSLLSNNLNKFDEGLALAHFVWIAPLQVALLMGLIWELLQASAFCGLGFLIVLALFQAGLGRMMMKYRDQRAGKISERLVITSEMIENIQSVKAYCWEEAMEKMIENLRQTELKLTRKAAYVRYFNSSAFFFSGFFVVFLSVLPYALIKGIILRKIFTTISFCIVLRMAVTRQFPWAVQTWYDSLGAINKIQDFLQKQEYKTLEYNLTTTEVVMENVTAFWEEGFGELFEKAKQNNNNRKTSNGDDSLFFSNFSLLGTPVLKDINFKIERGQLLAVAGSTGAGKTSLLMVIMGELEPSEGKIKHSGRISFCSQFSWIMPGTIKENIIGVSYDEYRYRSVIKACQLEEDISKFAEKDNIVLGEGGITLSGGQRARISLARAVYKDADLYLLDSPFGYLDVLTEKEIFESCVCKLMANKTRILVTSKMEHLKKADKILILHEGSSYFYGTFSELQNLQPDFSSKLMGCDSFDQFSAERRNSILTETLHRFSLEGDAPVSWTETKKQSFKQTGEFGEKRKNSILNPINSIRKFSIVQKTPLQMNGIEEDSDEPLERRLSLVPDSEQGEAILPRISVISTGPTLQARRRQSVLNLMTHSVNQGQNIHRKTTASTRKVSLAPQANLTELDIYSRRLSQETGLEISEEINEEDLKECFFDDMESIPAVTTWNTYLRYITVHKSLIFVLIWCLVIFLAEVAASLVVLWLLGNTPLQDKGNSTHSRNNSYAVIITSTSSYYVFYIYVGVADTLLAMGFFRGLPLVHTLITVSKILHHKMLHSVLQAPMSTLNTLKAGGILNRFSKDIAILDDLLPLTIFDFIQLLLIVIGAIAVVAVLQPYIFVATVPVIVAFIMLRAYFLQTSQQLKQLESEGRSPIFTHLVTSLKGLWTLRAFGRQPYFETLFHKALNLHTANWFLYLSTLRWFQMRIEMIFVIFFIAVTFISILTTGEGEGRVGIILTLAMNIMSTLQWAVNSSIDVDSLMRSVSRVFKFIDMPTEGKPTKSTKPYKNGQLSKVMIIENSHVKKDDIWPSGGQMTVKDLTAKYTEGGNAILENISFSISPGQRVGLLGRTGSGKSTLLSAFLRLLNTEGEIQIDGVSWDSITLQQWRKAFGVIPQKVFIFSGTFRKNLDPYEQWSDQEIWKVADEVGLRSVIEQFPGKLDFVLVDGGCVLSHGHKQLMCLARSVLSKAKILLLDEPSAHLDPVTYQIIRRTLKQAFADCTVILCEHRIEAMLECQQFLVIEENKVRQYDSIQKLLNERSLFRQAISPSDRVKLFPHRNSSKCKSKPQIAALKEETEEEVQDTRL
structure (smiles),measurement,value
"Cc1nc2ccc(N(C)C(=O)Cn3nc(-c4cccc(Cl)c4)c4ccccc4c3=O)cc2o1 [Example 1, 2-(4-(3-chlorophenyl)-1-oxophthalazin-2(1H)-yl)-N-methyl-N-(2-methylbenzo[d]oxazol-6-yl)acetamide]",EC50,< 10 µM
"Cc1nc2ccc(N(C)C(=O)Cn3nc(-c4cccc(F)c4)c4ccccc4c3=O)cc2o1 [Example 2, 2-(4-(3-fluorophenyl)-1-oxophthalazin-2(1H)-yl)-N-methyl-N-(2-methylbenzo[d]oxazol-6-yl)acetamide]",EC50,< 10 µM
"COc1ccc2c(-c3cccc(F)c3)nn(CC(=O)N(C)c3ccc4nc(C)oc4c3)c(=O)c2c1 [Example 3, 2-(4-(3-fluorophenyl)-7-methoxy-1-oxophthalazin-2(1H)-yl)-N-methyl-N-(2-methylbenzo[d]oxazol-6-yl)acetamide]",EC50,< 10 µM
"COc1ccc2c(-c3cccc(Cl)c3)nn(CC(=O)N(C)c3ccc4nc(C)oc4c3)c(=O)c2c1 [Example 4, 2-(4-(3-chlorophenyl)-7-methoxy-1-oxophthalazin-2(1H)-yl)-N-methyl-N-(2-methylbenzo[d]oxazol-6-yl)acetamide]",EC50,< 10 µM
"COc1ccc2c(-c3cccc(Cl)c3)nn(CC(=O)N(c3ccc4nc(C)oc4c3)C3CC3)c(=O)c2c1 [Example 5, 2-(4-(3-chlorophenyl)-7-methoxy-1-oxophthalazin-2(1H)-yl)-N-cyclopropyl-N-(2-methylbenzo[d]oxazol-6-yl)acetamide]",EC50,< 10 µM
"[2H]C([2H])([2H])N(C(=O)Cn1nc(-c2cccc(Cl)c2)c2ccc(OC)cc2c1=O)c1ccc2nc(C)oc2c1 [Example 6, 2-(4-(3-chlorophenyl)-7-methoxy-1-oxophthalazin-2(1H)-yl)-N-(methyl-d3)-N-(2-methylbenzo[d]oxazol-6-yl)acetamide]",EC50,< 10 µM
"[2H]C([2H])(C)N(C(=O)Cn1nc(-c2cccc(Cl)c2)c2ccc(OC)cc2c1=O)c1ccc2nc(C)oc2c1 [Example 7, 2-(4-(3-chlorophenyl)-7-methoxy-1-oxophthalazin-2(1H)-yl)-N-(ethyl-1,1-d2)-N-(2-methylbenzo[d]oxazol-6-yl)acetamide]",EC50,< 10 µM
"CCN(C(=O)Cn1nc(-c2cccc(F)c2)c2ccc(OC)cc2c1=O)c1ccc2nc(C)oc2c1 [Example 8, N-ethyl-2-(4-(3-fluorophenyl)-7-methoxy-1-oxophthalazin-2(1H)-yl)-N-(2-methylbenzo[d]oxazol-6-yl)acetamide]",EC50,< 10 µM
"CCN(C(=O)Cn1nc(-c2cccc(Cl)c2)c2ccc(OC)cc2c1=O)c1ccc2nc(C)oc2c1 [Example 9, 2-(4-(3-chlorophenyl)-7-methoxy-1-oxophthalazin-2(1H)-yl)-N-ethyl-N-(2-methylbenzo[d]oxazol-6-yl)acetamide]",EC50,< 10 µM
"COc1cc2c(=O)n(CC(=O)N(C)c3ccc4nc(C)oc4c3)nc(-c3cccc(F)c3)c2cc1Cl [Example 10, 2-(6-chloro-4-(3-fluorophenyl)-7-methoxy-1-oxophthalazin-2(1H)-yl)-N-methyl-N-(2-methylbenzo[d]oxazol-6-yl)acetamide]",EC50,< 10 µM
"COc1cc2c(=O)n(CC(=O)N(C)c3ccc4nc(C)oc4c3)nc(-c3cccc(Cl)c3)c2cc1Cl [Example 11, 2-(6-chloro-4-(3-chlorophenyl)-7-methoxy-1-oxophthalazin-2(1H)-yl)-N-methyl-N-(2-methylbenzo[d]oxazol-6-yl)acetamide]",EC50,< 10 µM
"COc1ccc2c(-c3cccc(F)c3)nn(CC(=O)N(c3ccc4nc(C)oc4c3)C3CC3)c(=O)c2c1 [Example 12, N-cyclopropyl-2-(4-(3-fluorophenyl)-7-methoxy-1-oxophthalazin-2(1H)-yl)-N-(2-methylbenzo[d]oxazol-6-yl)acetamide]",EC50,< 10 µM
"Cc1nc2ccc(N(C)C(=O)Cn3nc(-c4cccc(F)c4)c4ccc(O)cc4c3=O)cc2o1 [Example 13, 2-(4-(3-fluorophenyl)-7-hydroxy-1-oxophthalazin-2(1H)-yl)-N-methyl-N-(2-methylbenzo[d]oxazol-6-yl)acetamide]",EC50,< 10 µM
"Cc1nc2ccc(N(C(=O)Cn3nc(-c4cccc(F)c4)c4ccc(O)cc4c3=O)C3CC3)cc2o1 [Example 14, N-cyclopropyl-2-(4-(3-fluorophenyl)-7-hydroxy-1-oxophthalazin-2(1H)-yl)-N-(2-methylbenzo[d]oxazol-6-yl)acetamide]",EC50,< 10 µM
"CCOc1ccc2c(-c3cccc(F)c3)nn(CC(=O)N(C)c3ccc4nc(C)oc4c3)c(=O)c2c1 [Example 17, 2-(7-ethoxy-4-(3-fluorophenyl)-1-oxophthalazin-2(1H)-yl)-N-methyl-N-(2-methylbenzo[d]oxazol-6-yl)acetamide]",EC50,< 10 µM
"CCOc1ccc2c(-c3cccc(Cl)c3)nn(CC(=O)N(c3ccc4nc(C)oc4c3)C3CC3)c(=O)c2c1 [Example 18, 2-(4-(3-chlorophenyl)-7-ethoxy-1-oxophthalazin-2(1H)-yl)-N-cyclopropyl-N-(2-methylbenzo[d]oxazol-6-yl)acetamide]",EC50,< 10 µM
"CCOc1ccc2c(-c3cccc(Cl)c3)nn(CC(=O)N(C)c3ccc4nc(C)oc4c3)c(=O)c2c1 [Example 19, 2-(4-(3-chlorophenyl)-7-ethoxy-1-oxophthalazin-2(1H)-yl)-N-methyl-N-(2-methylbenzo[d]oxazol-6-yl)acetamide]",EC50,< 10 µM
"[2H]C([2H])([2H])N(C(=O)Cn1nc(-c2cccc(Cl)c2)c2ccc(OC(C)C)cc2c1=O)c1ccc2nc(C)oc2c1 [Example 20, 2-(4-(3-chlorophenyl)-7-isopropoxy-1-oxophthalazin-2(1H)-yl)-N-(methyl-d3)-N-(2-methylbenzo[d]oxazol-6-yl)acetamide]",EC50,< 10 µM
"CCOc1ccc2c(-c3cccc(F)c3)nn(CC(=O)N(c3ccc4nc(C)oc4c3)C3CC3)c(=O)c2c1 [Example 21, N-cyclopropyl-2-(7-ethoxy-4-(3-fluorophenyl)-1-oxophthalazin-2(1H)-yl)-N-(2-methylbenzo[d]oxazol-6-yl)acetamide]",EC50,< 10 µM
"[2H]C([2H])([2H])N(C(=O)Cn1nc(-c2cccc(F)c2)c2ccc(OCC)cc2c1=O)c1ccc2nc(C)oc2c1 [Example 22, 2-(7-ethoxy-4-(3-fluorophenyl)-1-oxophthalazin-2(1H)-yl)-N-(methyl-d3)-N-(2-methylbenzo[d]oxazol-6-yl)acetamide]",EC50,< 10 µM
"[2H]C([2H])([2H])N(C(=O)Cn1nc(-c2cccc(Cl)c2)c2ccc(OCC3CC3)cc2c1=O)c1ccc2nc(C)oc2c1 [Example 23, 2-(4-(3-chlorophenyl)-7-(cyclopropylmethoxy)-1-oxophthalazin-2(1H)-yl)-N-(methyl-d3)-N-(2-methylbenzo[d]oxazol-6-yl)acetamide]",EC50,< 10 µM
"Cc1nc2ccc(N(C)C(=O)Cn3nc(-c4cccc(Cl)c4)c4ccc(OCC5CC5)cc4c3=O)cc2o1 [Example 24, 2-(4-(3-chlorophenyl)-7-(cyclopropylmethoxy)-1-oxophthalazin-2(1H)-yl)-N-methyl-N-(2-methylbenzo[d]oxazol-6-yl)acetamide]",EC50,< 10 µM
"Cc1nc2ccc(N(C)C(=O)Cn3nc(-c4cccc(Cl)c4)c4ccc(OC(C)C)cc4c3=O)cc2o1 [Example 25, 2-(4-(3-chlorophenyl)-7-isopropoxy-1-oxophthalazin-2(1H)-yl)-N-methyl-N-(2-methylbenzo[d]oxazol-6-yl)acetamide]",EC50,< 10 µM
